Test results: US20110105577A1 (priority 2007, published 2011)

Row | SMILES | Aflatoxin B1 [ppb] (Aspergillus parasiticus) | Aflatoxin B1 [ppb] (Aspergillus flavus)
1 | N#Cc1c[nH]cc1-c1cccc2c1OC(F)(F)O2 [Fludioxonil] | 17390 | 1230
2 | OC(Cc1ccccc1Cl)(Cn1nc[nH]c1=S)C1(Cl)CC1 (centres unmarked) [Prothioconazole] | 37785 | 865
3 | CC(C)(C)C(O)(CCc1ccc(Cl)cc1)Cn1cncn1 (centres unmarked) [Tebuconazole] | 4545 | 2445
4 | CON=C(C(=O)OC)c1ccccc1CON=C(C)c1cccc(C(F)(F)F)c1 [Trifloxystrobin] | 9775 | 375
